Entries after “also recorded” stand apart in the source; their conditions may differ.
Experiments:
Format in all cases: cell-based, human
HUVEC cells [1] = experiment: HUVEC cell morphology (shrinkage), time lapse imaging
Procedure: HUVEC cells (ATCC, VA) (passage number 4) were cultured in EGM2 medium (Cambrex, Mass.) on 24-well plates and time lapse imaging was performed in a cell culture system mounted on an inverted microscope supplied with 5% CO2. The temperature was kept at 35° C. Images were taken every 60 sec using 20× objective (FIGS. 1-3) or every 30 min using 2× objective (FIG. 4) for up to 90 hr. FIGS. 1-3 show results from three time points of treatment: 0, 50, 100 min. […] Most shrunken cells were at cell cycle interphase but not mitotic stage, and still moving on the culture surface, as observed in time-lapse movies (data not shown). The shrinking effect caused by Compound 249 (and CA4) is not identical to the apoptotic effect in mitotic cells after microtubule depolymerization.

HUVEC cells [2] = experiment: HUVEC migration, wound healing assay with time-lapse imaging; conditions: for inhibition of HUVEC migration to the blank area: 24, 48 and 72 hr after treatment, compared to DMSO
Source text: Using the above described time-lapse culture system, a wound healing assay was used to analyze the effect of Compound 249 and CA4 on HUVEC cells migration. Confluent HUVEC cultures were scraped similarly to make a blank area. Migration of remaining cells under different treatment was imaged at the same time to generate time-lapse image sequences. Time-lapse movies were further analyzed to calculate the number of cells that migrated to the blank area. In FIG. 4, the gray lines show the front line of cells after scraping and the red lines show the front lines of cells after migration at 24, 48 and 72 hr after treatment.

[3] = test system: VE-cadherin junctions of HUVEC cells; experiment: VE-cadherin junctions of HUVEC cells, immunostaining; conditions: 24 hrs
Procedure: It was thought that these phenotypic changes might be associated with alterations of endothelial cell junctions. To determine if Compound 249 induced disengagement of HUVEC cell junctions, VE-cadherin junctions of HUVEC cells were examined. HUVEC cells were treated with DMSO or Compound 249 (0.1, 1, or 10 nM) for 24 hrs and fixed for immunostaining. DMSO concentration was 1:100 for all treatment. To boost the immunofluorescence signal, cells were stained with a mixture of two polyclonal anti-human VE-cadherin Abs (1:1 mixed, obtained from Amersham Biosciences, N.J., and Santa Cruz Biotechnology, Calif.) followed by staining with a mixture of fluorescent secondary antibodies. […] Non-DMSO treated cells gave a similar result to those with DMSO treatment (data not shown). With 1 nM Compound 249 treatment, VE-cadherin staining was reduced (red arrow in Compound 249 1 nM) compared to that in DMSO or Compound 249 0.1 nM treatment. […] In addition, the potent effect of Compound 249 on microtubule cytoskeletons can also contribute strongly to the cell-cell junction disruption.

[4] = 1 nM, compared to DMSO treatment

SMILES | HUVEC cell shrinkage / morphological change (HUVEC cells [1]; [4]) | HUVEC cell shrinkage / morphological change (HUVEC cells [1]; 10 nM) | absolute migrated cell numbers (quantitative analysis, FIG. 5) (HUVEC cells [2]; 1 nM) | inhibition of HUVEC migration to the blank area (HUVEC cells [2]; 1 nM) | absolute migrated cell numbers (quantitative analysis, FIG. 5) (HUVEC cells [2]; 5 nM) | inhibition of HUVEC migration to the blank area (HUVEC cells [2]; 5 nM) | time of treatment within which HUVEC cell shrinkage was caused (HUVEC cells [1]; 1 nM) [min] | time of treatment within which HUVEC cell shrinkage was induced (HUVEC cells [1]; 1 nM) [h] | effect on HUVEC cell morphology (shrinkage) compared with CA4 (HUVEC cells [1]; comparison Compound 249 vs CA4) | inhibitory effect on HUVEC migration in vitro (overall) (HUVEC cells [2]) | time after treatment at which the difference in migration inhibition between Compound 249 and CA4 was noticeable (FIG. 6) (HUVEC cells [2]; 1 nM) [h] | inhibition of HUVEC migration compared with CA4 (HUVEC cells [2]; comparison Compound 249 vs CA4) | disengagement of VE-cadherin junctions ([3]; 1 nM) | VE-cadherin staining at cell-cell junctions ([3]; 1 nM, compared to DMSO or 0.1 nM) | VE-cadherin staining at cell-cell junctions ([3]; 10 nM) | disengagement of cell junctions ([3]; 10 nM)
COc1ccc(/C=C\c2cc(OC)c(OC)c(OC)c2)cc1O [CA4, Combretastatin A4, reference compound] | did not cause obvious morphological changes | caused a similar change on HUVEC cells | much less of an effect on HUVEC migration | did not block the migration event | similar | significantly blocked migration |  |  |  |  |  |  |  |  |  | 
COc1ccc(-c2cnoc2-c2cc(OC)c(OC)c(OC)c2)cc1N [Compound 249, 2-methoxy-5-(5-(3,4,5-trimethoxyphenyl)isoxazol-4-yl)aniline] | Induces HUVEC Cell Shrinkage; also recorded: caused HUVEC cell shrinkage; also recorded: induced shrinkage of HUVEC cells |  | similar | migration inhibition; also recorded: Inhibits HUVEC Migration; also recorded: significantly blocked migration; also recorded: inhibited HUVEC cell migration | similar | significantly blocked migration | ≤ 50 | ≤ 1 | stronger effect on both shrinkage and migration than CA4; also recorded: more potent effect on HUVEC cell morphology than CA4 | potent inhibitory effect | ≤ 4 | stronger effect on both shrinkage and migration than CA4 | some of the VE-cadherin junctions were disengaged | reduced | significantly abolished VE-cadherin staining | most of the cell junctions were disengaged
